Laboratory results: patent US20040121316A1 (priority 2002, published 2004)
pEC50, pKi: −log10 of the molar value. Where “and” joins values, the source holds several entries; their conditions need not be identical. Equal values may be shown once. Read-outs that look alike come from different tables or passages of the source.

Tests used:
[1] = biological target: T1, recombinant HIV-1 protease (Human immunodeficiency virus type 1 group M subtype B, UniProt P04585); experiment: biochemical
T1 construct: Enzyme: recombinant HIV-1 protease expressed in E.Coli; purchased Bachem California, Inc. H-9040; host or cells: E. coli

mutant HIV-1 I84V/L90M = experiment: Resistance Evaluation, I84V/L90M fold change; type: cell-based; set-up: scale not given here
[2] = tested on: wild-type HIV-1 strain IIIB; experiment: microbe, parasite or virus in culture; type: cell-based; set-up: scale not given here
[3] = EC50 of mutant I84V/L90M relative to wild type, class symbols
[4] = Human immunodeficiency virus 1, IIIB

Structure (SMILES)	pKi ([1]; Ki, class symbols, Table 10)	I84V/L90M fold change (mutant HIV-1 I84V/L90M; [3])	pEC50 [2, 4]	other results
CCOC(=O)C(C)OP(=O)(Cc1ccc2c(c1)CCN(CC(NC(=O)OC1COC3OCCC13)C(O)CN(CC(C)C)S(=O)(=O)c1ccc(OC)cc1)C2)Oc1ccccc1 (centres unmarked)	9.00 to 10.00	+ (>3 to ≦10)		
CCOC(=O)C(C)OP(=O)(COc1ccc2c(c1)CCN(CC(NC(=O)OC1COC3OCCC13)C(O)CN(CC(C)C)S(=O)(=O)c1ccc(OC)cc1)C2)Oc1ccccc1 (centres unmarked)	9.00 to 10.00	+ (>3 to ≦10)		
CCOP(=O)(CCN1CCN(CC(NC(=O)OC2COC3OCCC23)C(O)CN(CC(C)C)S(=O)(=O)c2ccc(OC)cc2)CC1)OCC (centres unmarked)				Ki [1]: + +
COc1ccc(S(=O)(=O)N(CC(C)C)CC(O)C(CC2=CCN(CP(=O)(O)OC(C)C(=O)O)CC2)NC(=O)OC2COC3OCCC23)cc1 (centres unmarked)				EC50 (nM) [2]: + + +; Ki (pM) [1]: + + +; I84V/L90M fold change (mutant HIV-1 I84V/L90M; mutant I84V/L90M vs wild type): − (≦3)
CCOC(=O)C(C)OP(=O)(CCN1CC=C(CC(NC(=O)OC2COC3OCCC23)C(O)CN(CC(C)C)S(=O)(=O)c2ccc(OC)cc2)CC1)Oc1ccccc1 (centres unmarked)				EC50 (nM) [2]: + + +; pKi ([1]; read-out: Ki): < 9.00; I84V/L90M fold change (mutant HIV-1 I84V/L90M; mutant I84V/L90M vs wild type): − (≦3)
COc1ccc(S(=O)(=O)N(CC(C)C)CC(O)C(CN(C)Cc2ccc(P(=O)(O)OC(C)C(=O)O)cc2)NC(=O)OC2COC3OCCC23)cc1 (centres unmarked)				pEC50 ([2]; read-out: EC50): 5.30 to 6.30; Ki (pM) [1]: + +; I84V/L90M fold change (mutant HIV-1 I84V/L90M; mutant I84V/L90M vs wild type): + + +
CCOC(=O)C(C)OP(=O)(Cc1ccc2c(c1)CCN(C[C@H](NC(=O)O[C@H]1CO[C@H]3OCC[C@H]31)[C@H](O)CN(CC(C)C)S(=O)(=O)c1ccc(OC)cc1)C2)Oc1ccccc1 (some centres unmarked)				EC50 (nM) [2]: + +; Ki (pM) [1]: + +; I84V/L90M fold change (mutant HIV-1 I84V/L90M; mutant I84V/L90M vs wild type): + +
COc1ccc(S(=O)(=O)N(CC(C)C)CC(O)C(Cc2ccc(NCP(=O)(O)O)cc2)NC(=O)OC2COC3OCCC23)cc1 (centres unmarked)				EC50 (nM) [2]: + +; pKi ([1]; read-out: Ki): 9.00 to 10.00; I84V/L90M fold change (mutant HIV-1 I84V/L90M; mutant I84V/L90M vs wild type): + (>3 to ≦10)
Cc1ccc(C(=O)N[C@@H](Cc2ccc(OCP(=O)(OCc3ccccc3)OCc3ccccc3)cc2)[C@H](O)CN(CC(C)C)S(=O)(=O)c2ccc(N)cc2)cc1O				Ki (pM) [1]: + +
CC(C)CN(CC(O)C(Cc1ccccc1)NC(=O)OC1COC2OCCC12)S(=O)(=O)c1ccc(OCP(=O)(O)Oc2ccccc2)cc1 (centres unmarked)			< 5.30	Ki (pM) [1]: + +
COC(=O)N[C@H](C(=O)N[C@@H](Cc1ccccc1)[C@@H](O)CN(Cc1ccc(-c2ccccn2)cc1)NC(=O)[C@@H](NC(=O)OC)C(C)(C)C)C(C)(C)C [Atazanavir, reference compound]		+++ (>30)	> 7.30	pKi ([1]; Ki): 10.00 to 11.00
COC(=O)C(C)NP(=O)(COc1ccc(CC(NC(=O)OC2COC3OCCC23)C(O)CN(CC(C)C)S(=O)(=O)c2ccc(OC)cc2)cc1)Oc1ccccc1 (centres unmarked) [Example 30a]	10.00 to 11.00	− (≦3)	> 7.30	
CCOC(=O)C(C)NP(=O)(COc1ccc(CC(NC(=O)OC2COC3OCCC23)C(O)CN(CC(C)C)S(=O)(=O)c2ccc(OC)cc2)cc1)Oc1ccccc1 (centres unmarked) [Example 30b]	> 11.00		> 7.30	
COc1ccc(S(=O)(=O)N(CC(C)C)CC(O)C(Cc2ccc(OCP(=O)(NC(C)C(=O)OC(C)C)Oc3ccccc3)cc2)NC(=O)OC2COC3OCCC23)cc1 (centres unmarked) [Example 30c]	10.00 to 11.00 and > 11.00	− (≦3)		
CCCCOC(=O)C(C)NP(=O)(COc1ccc(CC(NC(=O)OC2COC3OCCC23)C(O)CN(CC(C)C)S(=O)(=O)c2ccc(OC)cc2)cc1)Oc1ccccc1 (centres unmarked) [Example 30d]	10.00 to 11.00	− (≦3)	> 7.30	
COc1ccc(S(=O)(=O)N(CC(C)C)CC(O)C(Cc2ccc(OCP(=O)(Oc3ccccc3)OC(C)C(=O)OC(C)C)cc2)NC(=O)OC2COC3OCCC23)cc1 (centres unmarked) [Example 31a]	10.00 to 11.00 and > 11.00	− (≦3)	> 7.30	
CCCCOC(=O)C(C)OP(=O)(COc1ccc(CC(NC(=O)OC2COC3OCCC23)C(O)CN(CC(C)C)S(=O)(=O)c2ccc(OC)cc2)cc1)Oc1ccccc1 (centres unmarked) [Example 31c]	10.00 to 11.00	− (≦3)	6.30 to 7.30	
CCOC(=O)C(C)OP(=O)(COc1ccc(CC(NC(=O)OC2COC3OCCC23)C(O)CN(CC(C)C)S(=O)(=O)c2ccc(OC)cc2)cc1)Oc1ccccc1 (centres unmarked) [Example 31e]	> 11.00		> 7.30	
CC(C)CN(C[C@@H](O)[C@H](Cc1ccc(OCP(=O)(Oc2ccccc2)Oc2ccccc2)cc1)NC(=O)OC1CCOC1)S(=O)(=O)c1ccc(N)cc1 (some centres unmarked) [NH2, phenol]				EC50 (nM) [2]: + +; pKi ([1]; read-out: Ki): 9.00 to 10.00; I84V/L90M fold change (mutant HIV-1 I84V/L90M; mutant I84V/L90M vs wild type): − (≦3)
CCOP(=O)(COc1ccc(CC(NC(=O)OC2CCOC2)C(O)CN(CC(C)C)S(=O)(=O)c2ccc(OC)cc2)cc1)OCC (centres unmarked) [OMe, OEt]				EC50 (nM) [2]: + + +; Ki (pM) [1]: + + and + + +; I84V/L90M fold change (mutant HIV-1 I84V/L90M; mutant I84V/L90M vs wild type): + + and + + +
COc1ccc(S(=O)(=O)N(CC(C)C)C[C@@H](O)[C@H](Cc2ccc(OCP(=O)(O)O)cc2)NC(=O)OC2CCOC2)cc1 (some centres unmarked) [OMe, OH]				pEC50 ([2]; read-out: EC50): < 5.30; I84V/L90M fold change (mutant HIV-1 I84V/L90M; mutant I84V/L90M vs wild type): + + +

Structure (SMILES)	pKi ([1]; Ki, class symbols, Table 10)	I84V/L90M fold change (mutant HIV-1 I84V/L90M; [3])	pEC50 [2, 4]	other results
COc1ccc(S(=O)(=O)N(CC(C)C)C[C@@H](O)[C@H](Cc2ccc(OCP(=O)(Oc3ccccc3)Oc3ccccc3)cc2)NC(=O)OC2CCOC2)cc1 (some centres unmarked) [OMe, phenol]				EC50 (nM) [2]: + + +; Ki (pM) [1]: + + +; I84V/L90M fold change (mutant HIV-1 I84V/L90M; mutant I84V/L90M vs wild type): + (>3 to ≦10)
CC(C)CN(C[C@@H](O)[C@H](Cc1ccccc1)NC(=O)O[C@H]1CO[C@H]2OCC[C@H]21)S(=O)(=O)c1ccc(OCP(=O)(Oc2ccccc2)O[C@@H](C)C(=O)OC(C)C)cc1 (some centres unmarked) [OPh, Lac-iPr]				pEC50 ([2]; read-out: EC50): 5.30 to 6.30; pKi ([1]; read-out: Ki): 9.00 to 10.00
CCOP(=O)(COc1ccc(CC(NC(=O)OC2COC3OCCC23)C(O)CN(CC(C)C)S(=O)(=O)c2ccc(OC)cc2)cc1)Oc1ccccc1 (centres unmarked) [drawing 608 R1=OEt R2=OPh]	> 11.00		> 7.30	
COc1ccc(S(=O)(=O)N(CC(C)C)CC(O)C(Cc2ccc(OCP(=O)(O)Oc3ccccc3)cc2)NC(=O)OC2COC3OCCC23)cc1 (centres unmarked) [drawing 608 R1=OH R2=OPh]	> 11.00		< 5.30	
COc1ccc(S(=O)(=O)N(CC(C)C)CC(O)C(Cc2ccc(OCP(=O)(OC)Oc3ccccc3)cc2)NC(=O)OC2COC3OCCC23)cc1 (centres unmarked) [drawing 608 R1=OMe R2=OPh]	10.00 to 11.00		> 7.30	
CCCCOC(=O)C(CC)NP(=O)(COc1ccc(CC(NC(=O)OC2COC3OCCC23)C(O)CN(CC(C)C)S(=O)(=O)c2ccc(OC)cc2)cc1)NC(CC)C(=O)OCCCC (centres unmarked) [drawing 612 R1=Aba-Bu R2=Aba-Bu]		+ (>3 to ≦10)	> 7.30	
CCCCOC(=O)C(CC(C)C)NP(=O)(COc1ccc(CC(NC(=O)OC2COC3OCCC23)C(O)CN(CC(C)C)S(=O)(=O)c2ccc(OC)cc2)cc1)NC(CC(C)C)C(=O)OCCCC (centres unmarked) [drawing 612 R1=Leu-Bu R2=Leu-Bu]		+ (>3 to ≦10)	6.30 to 7.30	
CCNP(=O)(COc1ccc(CC(NC(=O)OC2COC3OCCC23)C(O)CN(CC(C)C)S(=O)(=O)c2ccc(OC)cc2)cc1)NCC (centres unmarked) [drawing 612 R1=NHEt R2=NHEt]		− (≦3)	6.30 to 7.30	
CCOC(=O)C(NP(=O)(COc1ccc(CC(NC(=O)OC2COC3OCCC23)C(O)CN(CC(C)C)S(=O)(=O)c2ccc(OC)cc2)cc1)NC(C(=O)OCC)C(C)C)C(C)C (centres unmarked) [drawing 612 R1=Val-Et R2=Val-Et]		− (≦3)	> 7.30	
CCOC(=O)C(C)OP(=O)(COc1ccc(CC(NC(=O)OC2COC3OCCC23)C(O)CN(CC(C)C)S(=O)(=O)c2ccc(OC)cc2)cc1)OC(C)C(=O)OCC (centres unmarked) [drawing 613 R1=Lac-Et R2=Lac-Et]		− (≦3)	6.30 to 7.30	
COc1ccc(S(=O)(=O)N(CC(C)C)CC(O)C(Cc2ccc(OCP(=O)(OC(C)C(=O)OC(C)C)OC(C)C(=O)OC(C)C)cc2)NC(=O)OC2COC3OCCC23)cc1 (centres unmarked) [drawing 613 R1=Lac-iPr R2=Lac-iPr]		− (≦3)	> 7.30	
COc1ccc(S(=O)(=O)N(CC(C)C)CC(O)C(Cc2ccc(OCP(=O)(NC(C)C(=O)OC(C)C)Oc3ccccc3)cc2)NC(=O)OC2COC3OCCC23)cc1 (centres unmarked) [drawing 614 R1=OPh R2=Ala-iPr]	> 11.00 and 10.00 to 11.00		> 7.30	
COc1ccc(S(=O)(=O)N(CC(C)C)CC(O)C(Cc2ccc(OCP(=O)(O)OC(C)C(=O)O)cc2)NC(=O)OC2COC3OCCC23)cc1 (centres unmarked) [drawing 615 R1=OH R2=Lac-OH]		− (≦3)	5.30 to 6.30	
CCOC(=O)C(C)OP(=O)(COc1ccc(CC(NC(=O)OC2COC3OCCC23)C(O)CN(CC(C)C)S(=O)(=O)c2ccc(OC)cc2)cc1)Oc1cccc(CN)c1 [drawing 617 R1=OPb-m-CH2NH2 R2=(S)Lac-Et]	10.00 to 11.00		6.30 to 7.30	
CCOP(=O)(CON=Cc1ccc(CC(NC(=O)OC2COC3OCCC23)C(O)CN(CC(C)C)S(=O)(=O)c2ccc(OC)cc2)cc1)OCC (centres unmarked) [drawing 621 R1=Et R2=Et]		− (≦3)		EC50 [2]: + + +
COc1ccc(S(=O)(=O)N(CC(C)C)CC(O)C(Cc2ccc(NCP(=O)(NC(C)C(=O)OC(C)C)Oc3ccccc3)cc2)NC(=O)OC2COC3OCCC23)cc1 (centres unmarked) [drawing 660]				Ki ([1]; class symbols, Table 10): + +
COc1ccc(S(=O)(=O)N(CC(C)C)CC(O)C(Cc2ccc(NCP(=O)(NC(C)C(=O)OC(C)C)Oc3ccccc3)cc2)NC(=O)OC2COC3OCCC23)cc1 (centres unmarked) [drawing 661]				Ki ([1]; class symbols, Table 10): + +
COc1ccc(S(=O)(=O)N(CC(C)C)CC(O)C(Cc2ccc(NCP(=O)(NC(C)C(=O)OC(C)C)Oc3ccccc3)cc2)NC(=O)OC2COC3OCCC23)cc1 (centres unmarked) [drawing 662]				Ki ([1]; class symbols, Table 10): + + +
CCCCOC(=O)C(C)OP(=O)(COc1ccc(CC(NC(=O)OC2COC3OCCC23)C(O)CN(CC(C)C)S(=O)(=O)c2cccc(N)c2)cc1)Oc1ccccc1 (centres unmarked) [drawing 719]				Ki ([1]; Ki (pM)): 100 to 1000 pM; I84V/L90M fold change (mutant HIV-1 I84V/L90M; mutant I84V/L90M vs wild type): − (≦3)
CCCCOC(=O)C(C)OP(=O)(COc1ccc(CC(NC(=O)OC2COC3OCCC23)C(O)CN(CC(C)C)S(=O)(=O)c2cccc(N)c2)cc1)Oc1ccccc1 (centres unmarked) [drawing 720]				Ki (pM) [1]: + +
